Experimental data from PMC11878239, “Biochemical investigations using mass spectrometry to monitor JMJD6-catalysed hydroxylation of multi-lysine containing bromodomain-derived substrates” (RSC Chemical Biology, 2025).
Entries after “also recorded” stand apart in the source; their conditions may differ.

Legend:
full-length His6-JMJD6 [1] = target: T1, full-length His6-JMJD6 (Homo sapiens, UniProt Q6NYC1); assay: SPE-MS kinetics of JMJD6-catalysed lysyl hydroxylation (2OG, Fe(II), LAA, BRD-derived peptides); assay type: biochemical; conditions: for tri- or higher-order hydroxylation: 0.05 μM JMJD6, SPE-MS time courses
T1 construct: An enzyme mixture (10 μL) containing full-length His6-JMJD6 (5 μM; final concentration: 0.05 μM); made in house; host or cells: Escherichia coli BL21 (DE3), pET-28a(+) plasmid
Procedure: Recombinant human JMJD6 (full length with a N-terminal His6-tag) was produced in Escherichia coli BL21 (DE3) cells using a pET-28a(+) plasmid and purified by standard Ni(II)-affinity size-exclusion chromatography, as previously reported.[40] […] Purified JMJD6 was stored at −78 °C; fresh aliquots were used for all JMJD6 assays.
Peptides were used as 10 mM stock solutions in DMSO (Sigma-Aldrich; BioUltra grade).
Assay samples were aspirated under vacuum for 0.4 s, then loaded onto a C4 solid phase extraction (SPE) cartridge. After loading, the C4 SPE cartridge was washed with 0.1%v/v aqueous formic acid to remove non-volatile buffer salts (5 s, 1.5 mL min^−1). The peptide was eluted from the SPE cartridge with 0.1%v/v aqueous formic acid in 75/25v/v acetonitrile/water into the mass spectrometer (5 s, 1.6 mL min^−1) and the SPE cartridge re-equilibrated with 0.1%v/v aqueous formic acid (1 s, 1.25 mL min^−1).
Peaks corresponding to the m/z +5 charge states of the BRD-derived substrate peptide and the hydroxylated product peptides were extracted from the ion chromatogram and integrated using RapidFire Integrator 4.3.0 (Agilent). Peak area data were exported into Microsoft Excel and used to calculate the relative abundance of the mono-hydroxylated product peptide using the following equation: […]
The concentration of the mono-hydroxylated product peptide was calculated by multiplying the %-fraction of the mono-hydroxylated product peptide by the initial concentration of the substrate peptide employed in the assay. Initial reaction velocities were then calculated and fitted to a Michaelis–Menten plot using nonlinear regression (GraphPad Prism 5).

full-length His6-JMJD6 [2] = target: T1, full-length His6-JMJD6; assay: LC-MS of JMJD6-catalysed hydroxylation under 18O2 or in 18OH2; assay type: biochemical; conditions: 2OG 2 mM, FAS 20 μM, LAA 1 mM, peptide 50 μM, Tris pH 7.5, 24 h, room temperature
Procedure: […] The assay solutions were transferred to a custom-made air-tight container, which was then sealed and removed from the anaerobic chamber. […] The container was evacuated and then filled with […] to a pressure of ∼700 mbar. […] The enzyme reactions were incubated for 24 h at room temperature, after which time the container was returned to the anaerobic chamber. The reactions were stopped by the addition of 10%v/v aqueous formic acid (20 μL) and analysed by LC–MS using an Agilent 1290 infinity II LC system comprising a 1290 infinity II multi-sampler and a 1290 infinity II high speed pump connected to an Agilent 6550 accurate mass iFunnel quadrupole time-of-flight (QTOF) mass spectrometer. Samples (6 μL) were injected onto a 2.1 × 50 mm, 1.8 μm ZORBAX RRHD Eclipse Plus C18 column equipped with a UHPLC guard column (Agilent; flow rate: 0.2 mL min^−1). […] Acquired data were analysed using Agilent MassHunter Qualitative Analysis (version B.07.00).
Tris buffer, cofactor and BRD4_511–550 stock solutions were prepared using ^18OH2 (CK Isotopes) and JMJD6 was buffer exchanged into 50 mM Tris (pH 7.5) in ^18OH2. The enzyme reactions were incubated under an ambient atmosphere at room temperature for 24 h, after which the reactions were stopped by the addition of 10%v/v aqueous formic acid (20 μL) and analysed by LC–MS as described above.

apparent maximum velocity v^app max (full-length His6-JMJD6 [1]; BRD peptide substrate varied, 0.05 μM full-length His6-JMJD6, 2OG 200 μM, FAS 2 μM, LAA 100 μM, 50 mM Tris pH 7.5, ambient temperature, mono-hydroxylation, substrate inhibition fit, mean ± SD n = 3): 5.8 ± 1.2 nM/s
K m (full-length His6-JMJD6 [1]; BRD peptide substrate varied, 0.05 μM full-length His6-JMJD6, 2OG 200 μM, FAS 2 μM, LAA 100 μM, 50 mM Tris pH 7.5, ambient temperature, substrate inhibition fit, mean ± SD n = 3, read-out: Michaelis constant Km (K^app m)): 0.62 ± 0.26 µM
turnover number kcat (k^app cat) (full-length His6-JMJD6 [1]; BRD peptide substrate varied, 0.05 μM full-length His6-JMJD6, 2OG 200 μM, pH 7.5, SPE-MS, calculated from v^app max assuming active JMJD6 = total enzyme, n = 3): 0.12 ± 0.02 s⁻¹
catalytic efficiency kcat/Km (full-length His6-JMJD6 [1]; BRD peptide substrate varied, 0.05 μM full-length His6-JMJD6, 2OG 200 μM, pH 7.5, SPE-MS, n = 3): 190000 ± 80000 M⁻¹ s⁻¹
relative abundance of mono-hydroxylated peptide at plateau (full-length His6-JMJD6 [1]; absence of LAA, after ~10 min, 50 nM JMJD6, 2OG 200 μM, FAS 2 μM, peptide 2 μM, pH 7.5, n = 3): ~15%
substrate inhibition of JMJD6 catalysis (full-length His6-JMJD6 [1]; high substrate concentrations (>2 μM)): inhibit JMJD6 catalysis
Sequence: LAELQEQLKAVHEQLAALSQPQQNKPKKKEKDKKEKKKEK [BRD4_511–550, 40-mer peptide fragment derived from human BRD4, JMJD6 substrate, prepared by SPPS]
tri- or higher-order hydroxylation (full-length His6-JMJD6 [1]; ambient temperature): negligible levels of BRD4_511–550 hydroxylations beyond mono-hydroxylation
tri- or higher-order hydroxylation (full-length His6-JMJD6 [1]; ambient temperature, listed as BRD4511-550): No evidence for triple; also recorded: No evidence for triple (or higher order)
incorporated oxygen in 18OH2 (full-length His6-JMJD6 [2]; 16O2 atmosphere in 18OH2, JMJD6 2 μM): complete incorporation of ^16O from atmospheric O2
mass shifts / origin of incorporated oxygen under 18O2 (full-length His6-JMJD6 [2]; 18O2 atmosphere in H2O, JMJD6 2 μM): successive +18 Da shifts; also recorded: originates, at least, predominantly from ^18O2; also recorded: originate predominantly from atmospheric O2
